pEC50: −log10 of the molar value.
Biological target: Muscarinic acetylcholine receptor (Cavia porcellus, UniProt Q8VH26)
Assay: Muscarinic acetylcholine receptor M3 agonistic/antagonistic activity in guinea pig ileum

Muscarinic acetylcholine receptor, sequence (Q8VH26 whole entry): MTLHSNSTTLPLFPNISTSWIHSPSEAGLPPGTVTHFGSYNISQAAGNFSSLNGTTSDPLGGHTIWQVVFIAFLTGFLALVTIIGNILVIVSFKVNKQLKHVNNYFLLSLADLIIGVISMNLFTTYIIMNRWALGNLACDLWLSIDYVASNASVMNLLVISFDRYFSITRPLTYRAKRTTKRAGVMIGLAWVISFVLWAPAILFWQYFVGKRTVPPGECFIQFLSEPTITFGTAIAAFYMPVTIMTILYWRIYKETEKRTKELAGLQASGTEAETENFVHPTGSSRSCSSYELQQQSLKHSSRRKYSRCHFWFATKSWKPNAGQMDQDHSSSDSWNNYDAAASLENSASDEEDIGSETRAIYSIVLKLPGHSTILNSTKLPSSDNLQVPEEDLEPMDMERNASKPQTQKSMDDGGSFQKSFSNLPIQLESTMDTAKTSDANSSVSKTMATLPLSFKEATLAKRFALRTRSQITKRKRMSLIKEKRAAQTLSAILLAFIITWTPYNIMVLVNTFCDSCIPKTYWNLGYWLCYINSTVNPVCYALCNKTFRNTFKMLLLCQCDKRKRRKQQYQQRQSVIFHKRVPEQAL

Structure (SMILES) | pEC50
CC(C#CCN1CCCC1)N1CCNC1=O (stereo not drawn) | > 9.00
CC(C#CCN1CCCC1)N1CCCC1=O (stereo not drawn) | > 9.00
CC(C#CCN1CCCC1)N(C)C(N)=O (stereo not drawn) | > 9.00

— BindingDB's records for doi:10.1021/jm00095a025 (University of Uppsala, 1992)
